According to PubChem BioAssay AID493250 (Broad Institute, 2011):
Active and inactive are the calls of the source.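 The calls were made as follows: active = signal decrease with fitted half-maximal dose at or below ten times the highest valid tested dose; inconclusive = poor fit, or flat fit at 30 to 70% inhibition; inactive = the rest.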

Target: Zinc finger protein mex-5 (Caenorhabditis elegans) (UniProt Q9XUB2)
Experiment: inhibitors of MEX-5 RNA binding, dose response, biochemical, fluorescence polarization, C. elegans, cherry-picked, round 3 (AID 493250)
Settings: purified MEX-5-MBP, FITC-TCR2 RNA fluorescence polarization

Chain of Zinc finger protein mex-5 (Caenorhabditis elegans) (Q9XUB2 whole entry, looked up): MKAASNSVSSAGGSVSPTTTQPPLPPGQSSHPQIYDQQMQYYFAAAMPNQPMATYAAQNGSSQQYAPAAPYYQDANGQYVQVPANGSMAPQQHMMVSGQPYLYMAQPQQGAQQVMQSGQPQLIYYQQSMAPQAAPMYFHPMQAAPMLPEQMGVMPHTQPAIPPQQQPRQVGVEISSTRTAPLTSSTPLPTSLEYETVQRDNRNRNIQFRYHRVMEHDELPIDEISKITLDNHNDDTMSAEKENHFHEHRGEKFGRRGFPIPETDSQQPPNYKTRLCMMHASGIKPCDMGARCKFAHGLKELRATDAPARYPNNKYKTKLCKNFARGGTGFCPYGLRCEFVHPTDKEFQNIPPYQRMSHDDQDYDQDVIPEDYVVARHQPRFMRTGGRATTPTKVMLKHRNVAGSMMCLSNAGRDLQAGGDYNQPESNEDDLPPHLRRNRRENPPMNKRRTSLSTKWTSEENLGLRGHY

Structure (SMILES)	AC50
COc1ccc(OC)c(NC(=O)c2sc3nc(Cc4ccccc4)cc(C(F)(F)F)c3c2N)c1	6.44 µM
COc1ccccc1/C=C/C=C1\Oc2c(ccc(O)c2CN(C)C)C1=O	2.28 µM
O=C1C(Cl)=C(NC2CCCCC2)C(=O)N1c1ccc(Cl)cc1	> 10 µM (inactive)
CCN(CC)c1ccc(/C=C(/C#N)c2nc3ccc(C)cc3[nH]2)c(OC(C)C)c1	1.16 µM
COc1ccc(NC(=O)c2cccc(-c3ccc(O)cc3)c2)cn1	3.91 µM
COC(=O)C1=COC(C)C2CN3CCc4c([nH]c5ccccc45)C3CC12 (centres undefined)	4.21 µM
COc1cccc(C2C=C(c3cccs3)Nc3ncnn32)c1OC (centres undefined)	> 10 µM (inactive)
Cc1ccc(S(=O)(=O)c2cc3c(=O)n4ccccc4nc3n(C3CCCCC3)c2=N)cc1	> 10 µM (inactive)
Nc1nc(Cl)nc2ccc(Br)cc12	> 10 µM (inactive)
Cc1cccc(N2C(=O)NC(=O)/C(=C/c3cc4c(cc3[N+](=O)[O-])OCO4)C2=O)c1	9.86 µM
COc1ccc(-n2c(O)c(/C=N/NS(=O)(=O)c3cc(C)ccc3C)c3ccccc3c2=O)cc1OC	1.32 µM
CCCC1=NN2C(=N)/C(=C\c3ccc(SCc4ccco4)o3)C(=O)N=C2S1	0.98 µM
CCN1C(=O)c2cccc3c(NC(=O)C4CCCCC4)ccc1c23	6.96 µM

Same assay, conditions: purified MEX-5-MBP, FITC-TCR2 RNA fluorescence polarization; at 10 µM (top of the series)

Structure (SMILES)	activity change, negative = inhibition
CCc1cc(-c2n[nH]c(C)c2-c2nc3ccccc3s2)c(O)cc1OCC(=O)NN	inactive
COC(=O)c1ccc(-c2ccc(C(c3c(C)[nH][nH]c3=O)c3c(C)[nH][nH]c3=O)o2)cc1	inactive
COC(=O)c1cccc2nc3c(C(C)O)cccc3nc12 (centres undefined)	inactive
COc1ccc(/C=N/NC(=O)c2ccc(=O)[nH]n2)cc1OC	inactive
COc1ccccc1N=Nc1c(C)[nH][nH]c1=O	inactive
COCCNC(=S)NNC(=O)c1cccs1	inactive
COc1ccc2cc3c(N)c(C(=O)NCc4ccco4)sc3nc2c1	inactive
O=C1N=c2ccccc2=C1c1[nH]c(=S)[nH]c1O	inactive
CN1CCCc2cc(C=O)ccc21	inactive
COCCNc1nnc(SCC(=O)NNC(=O)c2ccc([N+](=O)[O-])cc2)s1	inactive
FC(F)(F)c1nc2cc3nc4ccccc4[nH]c3cc2n1	inactive
COc1ccc(NC(=O)c2cccs2)cn1	inactive
Cc1cc([N+](=O)[O-])nn1CC(=O)NNC(=S)Nc1ccc(F)cc1	inactive
N=C(N)N=Nc1c(O)[nH]c2ccc(Br)cc12	inactive
Cc1ccc(NC(=O)CCC(=O)NNC(=S)Nc2ccccc2)c(C)c1	inactive
CC(C)(C)CC(C)(C)NCC(O)COc1ccc2c(c1)CCC2 (centres undefined)	inactive
O=C(Nc1cccc2ncccc12)c1ccccc1[N+](=O)[O-]	inactive
CCOC(=O)[C@]1(C#N)[C@@H]2C=CC(C(N)=O)=CN2[C@@H](C(N)=O)[C@@H]1c1ccc(F)cc1	inactive
COc1ccc(C(=O)NNC(=O)c2ccc3ccccc3c2O)cc1	inactive
COc1ccccc1N1C(=O)S/C(=C\c2cccs2)C1=O	inactive
O=C1N=C(N2C=CC(=C3C=CNC=C3)C=C2)/C(=C/N=NC(=O)c2ccccc2)S1	inactive
Oc1cccc(/C=N/NC(=S)Nc2cccnc2)c1O	inactive
COc1ccc(OC)c(/C=N/NC(=O)c2ccc(=O)[nH]n2)c1	inactive
CN(C)C(=O)Oc1ccc2c(c1)O/C(=C\c1ccccc1)C2=O	inactive

Structure (SMILES)	activity change, negative = inhibition
Cc1nc2c3ccccc3nc(NNC(=O)CCC(=O)N3CCC(C)CC3)n2n1	inactive
Cc1cccn2c(=O)c3cc(C(=O)NC(C)C)c(=N)n(Cc4ccncc4)c3nc12	inactive
CN1CCc2c(sc(NC(=O)C3CCCN3S(=O)(=O)c3ccc(Cl)s3)c2C(N)=O)C1 (centres undefined)	inactive
CCCCn1c(N)c(N(CCOC)C(=O)c2ccc(Br)o2)c(=O)[nH]c1=O	inactive
C/C=C(\C)CN1CCC(n2nccc2NC(=O)CCCc2ccccc2)CC1	inactive
O=C(O)CCSc1nc2ccccc2n1Cc1ccccc1	inactive
O=C(O)c1cccc(NC(=S)N/N=C/c2c[nH]c3ccccc23)c1	inactive
COC1=C(Nc2ccc(O)cc2)C(=O)c2ccccc2C1=O	inactive
O=C(O)CSc1ncnc2nc[nH]c12	inactive
CC1CN2C(c3ccc([N+](=O)[O-])cc3)=CSC2=N1 (centres undefined)	inactive
N#C/C(C(N)=O)=C1/CCc2ccccc2N1	inactive
CC(C)C(=O)OCC(=O)Nc1ccc2c(c1)CCC2	inactive
N=C1C(c2nc3ccccc3[nH]2)=C(O)CN1c1ccc(F)cc1	inactive
CC(=O)N1C(=O)/C(=C2\SC(=S)N(NC(=O)c3ccc(O)cc3)C2=O)c2ccccc21	inactive
CSc1ccc(C(c2c(C(=O)O)[nH]c3ccccc23)c2c(C(=O)O)[nH]c3ccccc23)cc1	inactive
Cc1ccc(N/N=C(\C#N)C(=O)c2ccsc2)cc1	inactive
COc1ccc(OC)c(-n2c(-c3cc(-c4ccco4)[nH]n3)n[nH]c2=S)c1	inactive
COc1ccc(N(CCC#N)C(=O)/C(C#N)=C/c2cccs2)cc1	inactive
COC(=O)c1ccccc1-c1ccc(C(c2c(C)[nH][nH]c2=O)c2c(C)[nH][nH]c2=O)o1	inactive
COc1cc2c(cc1OC)-c1c(OC)c(OC)cc3c1C(C2)N(C)CC3 (centres undefined)	inactive
COc1ccc(/C=C/C(=O)c2cc(Cl)cc(Cl)c2O)c(OC)c1	inactive
COc1ccc(C2NC(=O)N(CCCC(=O)O)C(C)=C2C(=O)OCc2ccccc2)cc1 (centres undefined)	inactive
CC(C#N)(Nc1ccc(Cl)cc1)c1cccnc1 (centres undefined)	inactive
CCCCn1c(N)c(N(Cc2ccccc2OC)C(=O)C(C)C)c(=O)[nH]c1=O	inactive

Structure (SMILES)	activity change, negative = inhibition
C=CCOc1ccc(C(c2c(C(=O)O)[nH]c3ccccc23)c2c(C(=O)O)[nH]c3ccccc23)cc1	inactive
CCCCCC(=O)N(Cc1ccccc1)c1c(N)n(CCOC)c(=O)[nH]c1=O	inactive
C=CCn1c(O)c(N=NC(=O)CNC(=O)/C=C/c2ccco2)c2ccccc21	inactive
COc1ccccc1-c1cn[nH]c1-c1ccc(O)cc1O	inactive
NS(=O)(=O)c1ccc(N=Nc2ccc(=O)[nH]c2O)cc1	inactive
C[C@H](O)CC1=C[C@H](O)[C@@H](C)OC1=O	inactive
c1cncc(C2CC(c3cccs3)n3ncnc3N2)c1 (centres undefined)	inactive
Cc1c(NC(=O)c2ccc(=O)oc2)c(=O)n(-c2ccccc2)n1C	inactive
NC(=O)c1cccc2cc3ccccc3cc12	inactive
CCc1ccc(S(=O)(=O)/N=C2\C=C(Nc3ccc(C(=O)O)cc3)C(=O)c3ccccc32)cc1	inactive
CCN=c1scc(-c2ccco2)n1/N=C/c1ccc(O)cc1	inactive
O=C(Nc1nccs1)c1ccc(-c2ccc(Cl)cc2)o1	inactive
Cc1ccc(C(=O)N/C(=C\c2ccc(-c3ccc(Cl)cc3)o2)C(=O)NCCCN(C)C)cc1	inactive
CCN(CC)c1ccc(N2C(=O)c3ccccc3C2=O)cc1	inactive
O=C1NC(=O)/C(=C/c2ccc(N3CCOCC3)o2)N1	inactive
O=C(N/N=C/c1ccncc1)c1cc([N+](=O)[O-])cc([N+](=O)[O-])c1O	inactive
CCC(=O)N(CC)C1=C(O)c2ccccc2C(=O)C1=O	inactive
O=C(N/N=C/c1cccnc1)c1ccc(O)cc1	inactive
CN1CCc2nc3sc(C(=O)NC(C)(C)C)c(N)c3cc2C1	inactive
CCOc1cc(/C=N/Nc2nc(=O)[nH]nc2C)ccc1O	inactive
CC1=C(C(=O)OCc2ccccc2)C(c2cccc([N+](=O)[O-])c2)NC(=O)N1C (centres undefined)	inactive
Nc1ccccc1C(=O)NNC(=O)C(=O)/C=C(\O)c1ccccc1	inactive
COc1cccc(NCc2cc(=O)oc3cc(C)c(O)cc23)c1	inactive
